Results reported in PMC11928621 (Nature Communications, 2025).
Counter-ions that a name gives are not always drawn.

T1: LYCHOS (Homo sapiens, UniProt Q7Z3F1)
T1 sequence (Q7Z3F1 1-870): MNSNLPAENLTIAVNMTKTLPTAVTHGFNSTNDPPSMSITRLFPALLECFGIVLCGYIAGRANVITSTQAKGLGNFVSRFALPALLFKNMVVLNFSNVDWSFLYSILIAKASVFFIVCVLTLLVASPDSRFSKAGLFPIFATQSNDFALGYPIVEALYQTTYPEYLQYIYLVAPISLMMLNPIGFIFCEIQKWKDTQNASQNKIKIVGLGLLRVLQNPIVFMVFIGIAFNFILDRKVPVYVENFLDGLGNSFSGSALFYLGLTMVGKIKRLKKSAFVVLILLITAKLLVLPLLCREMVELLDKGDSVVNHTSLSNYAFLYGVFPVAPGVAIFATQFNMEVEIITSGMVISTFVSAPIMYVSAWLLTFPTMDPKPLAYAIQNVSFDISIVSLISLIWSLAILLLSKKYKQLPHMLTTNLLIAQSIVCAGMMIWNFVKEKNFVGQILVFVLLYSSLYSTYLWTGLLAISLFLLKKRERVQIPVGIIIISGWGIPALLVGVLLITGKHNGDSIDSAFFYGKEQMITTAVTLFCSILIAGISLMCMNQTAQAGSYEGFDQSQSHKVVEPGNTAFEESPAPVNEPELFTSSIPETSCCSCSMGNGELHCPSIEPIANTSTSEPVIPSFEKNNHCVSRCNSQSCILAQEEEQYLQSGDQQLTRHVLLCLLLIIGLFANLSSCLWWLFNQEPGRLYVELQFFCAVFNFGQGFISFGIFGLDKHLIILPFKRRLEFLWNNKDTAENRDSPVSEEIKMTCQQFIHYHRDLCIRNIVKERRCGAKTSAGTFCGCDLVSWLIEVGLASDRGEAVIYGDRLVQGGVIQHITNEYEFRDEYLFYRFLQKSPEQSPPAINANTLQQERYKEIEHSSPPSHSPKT


How the values were obtained:
[1] = target: T1, LYCHOS; test: SPR Kd and cryo-EM structure of the complex; assay type: binding
[2] = target: the molecule itself; test: cryo-EM structure

Row | Kd [1] | Molecule | stoichiometry N [2]
1 | ~150 µM | O=S(=O)(O)Oc1c[nH]c2ccccc12 [IS, indoxyl sulfate] | 
2 |  | human LYCHOS (lysosomal cholesterol signaling protein), C-terminal FLAG and 10×His tags (natural protein, UniProt Q7Z3F1 1-870, looked up, N-acetylglucosamine linked to Asn309) MNSNLPAENLTIAVNMTKTLPTAVTHGFNSTNDPPSMSITRLFPALLECFGIVLCGYIAGRANVITSTQAKGLGNFVSRFALPALLFKNMVVLNFSNVDWSFLYSILIAKASVFFIVCVLTLLVASPDSRFSKAGLFPIFATQSNDFALGYPIVEALYQTTYPEYLQYIYLVAPISLMMLNPIGFIFCEIQKWKDTQNASQNKIKIVGLGLLRVLQNPIVFMVFIGIAFNFILDRKVPVYVENFLDGLGNSFSGSALFYLGLTMVGKIKRLKKSAFVVLILLITAKLLVLPLLCREMVELLDKGDSVVNHTSLSNYAFLYGVFPVAPGVAIFATQFNMEVEIITSGMVISTFVSAPIMYVSAWLLTFPTMDPKPLAYAIQNVSFDISIVSLISLIWSLAILLLSKKYKQLPHMLTTNLLIAQSIVCAGMMIWNFVKEKNFVGQILVFVLLYSSLYSTYLWTGLLAISLFLLKKRERVQIPVGIIIISGWGIPALLVGVLLITGKHNGDSIDSAFFYGKEQMITTAVTLFCSILIAGISLMCMNQTAQAGSYEGFDQSQSHKVVEPGNTAFEESPAPVNEPELFTSSIPETSCCSCSMGNGELHCPSIEPIANTSTSEPVIPSFEKNNHCVSRCNSQSCILAQEEEQYLQSGDQQLTRHVLLCLLLIIGLFANLSSCLWWLFNQEPGRLYVELQFFCAVFNFGQGFISFGIFGLDKHLIILPFKRRLEFLWNNKDTAENRDSPVSEEIKMTCQQFIHYHRDLCIRNIVKERRCGAKTSAGTFCGCDLVSWLIEVGLASDRGEAVIYGDRLVQGGVIQHITNEYEFRDEYLFYRFLQKSPEQSPPAINANTLQQERYKEIEHSSPPSHSPKT | 2
